Measured values as given in ChEMBL document CHEMBL4680302, “Biologic-like In Vivo Efficacy with Small Molecule Inhibitors of TNFα Identified Using Scaffold Hopping and Structure-Based Drug Design Approaches” (J Med Chem, 2020).

Tests used:
Tumor necrosis factor [1] = target: T1, Tumor necrosis factor (Homo sapiens, UniProt P01375); assay: Displacement of fluorescent labeled probe from human recombinant His-tagged TNFalpha (77 to 233 residues) expressed in Escherichia coli preincubated for 1 hr followed by fluorogenic probe addition and measured after 3 hrs by HTRF assay
Tumor necrosis factor [2] = target: T1, Tumor necrosis factor; assay: Inhibition of exogenous human TNFalpha in HEK-Blue-CD40L cells assessed as reduction in TNF-alpha-induced NFkappaB activation incubated for 18 hrs by quanti-blue based SEAP assay; format: cell-based
[3] = Metabolic stability in human liver microsomes assessed as parent compound remaining after 10 mins; format: ADME, Microsome; details: read-out: Stabilty
[4] = Metabolic stability in mouse liver microsomes assessed as parent compound remaining after 10 mins; format: ADME, Microsome; details: read-out: Stabilty
Cytochrome P450 2C9 = Cytochrome P450 2C9 (Homo sapiens, UniProt P11712); assay: Inhibition of recombinant CYP2C9 (unknown origin); format: ADME
Cytochrome P450 2C19 = Cytochrome P450 2C19 (Homo sapiens, UniProt P33261); assay: Inhibition of recombinant CYP2C19 (unknown origin); format: ADME
Sequence of Cytochrome P450 2C19 (P33261 whole entry): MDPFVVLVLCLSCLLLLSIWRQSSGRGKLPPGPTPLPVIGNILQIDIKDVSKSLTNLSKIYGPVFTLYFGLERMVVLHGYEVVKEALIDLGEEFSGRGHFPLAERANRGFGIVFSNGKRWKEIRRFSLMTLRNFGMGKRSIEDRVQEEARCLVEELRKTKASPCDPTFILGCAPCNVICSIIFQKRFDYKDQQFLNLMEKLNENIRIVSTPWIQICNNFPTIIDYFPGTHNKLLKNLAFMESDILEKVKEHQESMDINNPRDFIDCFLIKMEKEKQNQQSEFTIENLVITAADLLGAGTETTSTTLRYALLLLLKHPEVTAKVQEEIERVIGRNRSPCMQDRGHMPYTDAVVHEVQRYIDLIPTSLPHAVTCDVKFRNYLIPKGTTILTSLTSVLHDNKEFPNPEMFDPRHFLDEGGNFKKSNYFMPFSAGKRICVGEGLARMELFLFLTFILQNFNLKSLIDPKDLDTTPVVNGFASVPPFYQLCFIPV

T1 sequence (P01375 whole entry, the tested form may be a part): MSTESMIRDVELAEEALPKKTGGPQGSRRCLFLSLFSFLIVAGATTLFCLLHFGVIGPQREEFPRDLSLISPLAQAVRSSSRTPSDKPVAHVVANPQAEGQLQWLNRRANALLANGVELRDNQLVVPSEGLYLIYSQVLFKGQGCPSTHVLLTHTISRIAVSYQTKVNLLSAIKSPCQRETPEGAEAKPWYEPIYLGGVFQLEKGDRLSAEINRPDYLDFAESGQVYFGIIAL
Sequence of Cytochrome P450 2C9 (P11712 whole entry): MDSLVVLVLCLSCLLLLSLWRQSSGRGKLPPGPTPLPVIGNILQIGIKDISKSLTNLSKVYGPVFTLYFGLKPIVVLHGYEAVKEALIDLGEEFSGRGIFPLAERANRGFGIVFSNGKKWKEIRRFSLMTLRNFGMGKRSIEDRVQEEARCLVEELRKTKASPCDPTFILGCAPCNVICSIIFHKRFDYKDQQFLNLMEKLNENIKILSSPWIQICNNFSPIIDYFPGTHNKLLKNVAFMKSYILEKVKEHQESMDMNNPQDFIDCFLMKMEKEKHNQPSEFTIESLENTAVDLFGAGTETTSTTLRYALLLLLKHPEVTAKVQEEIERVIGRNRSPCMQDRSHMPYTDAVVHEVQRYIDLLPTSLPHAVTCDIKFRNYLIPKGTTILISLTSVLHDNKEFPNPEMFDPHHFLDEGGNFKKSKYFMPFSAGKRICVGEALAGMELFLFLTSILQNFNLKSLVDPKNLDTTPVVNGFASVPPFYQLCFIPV

remaining at 10 min [3] | remaining at 10 min [4] | IC50 (Cytochrome P450 2C9) | IC50 (Cytochrome P450 2C19) | Structure (SMILES) | IC50 (Tumor necrosis factor [1]) | IC50 (Tumor necrosis factor [2])
– | – | – | – | CC(Nc1c(Cl)cnc2ncc(-c3cnc(C(C)(C)O)nc3)cc12)c1ccccc1F (racemic) | 207 nM | –
51% | 34% | – | – | CC(Nc1c(Cl)cnc2ccc(-c3cnc(C(C)(C)O)nc3)cc12)c1ccccc1F (racemic) | 27 nM | 190 nM
57% | 38% | – | – | CCC(Nc1c(Cl)cnc2ccc(-c3cnc(C(C)(C)O)nc3)cc12)c1ccccc1F (racemic) | 35 nM | 368 nM
76% | 47% | – | – | CC(C)(O)c1ncc(-c2ccc3ncc(Cl)c(NC(C)(C)c4ccccc4)c3c2)cn1 | > 10000 nM | > 25000 nM
– | – | 2800 nM | 2100 nM | Cc1ccc(C)c(Nc2c(Cl)c(C)nc3ccc(-c4cnc(C(C)(C)O)nc4)cc23)c1 | 51 nM | 196 nM
50% | 21% | – | – | CC(Nc1c(Cl)cnc2ccc(-c3cnc(C(C)(C)O)nc3)cc12)c1ccccn1 (racemic) | 264 nM | > 25000 nM
45% | 50% | – | – | C[C@@H](Nc1c(Cl)cnc2ccc(-c3cnc(C(C)(C)O)nc3)cc12)c1ccccc1 | 14 nM | 496 nM
– | – | – | – | CC(Nc1c(Cl)cnc2ccc(-c3cnc(C(C)(C)O)nc3)nc12)c1ccccc1F (racemic) | 24 nM | –
– | – | – | – | Cc1ccc(C)c(Nc2ccnc3ccc(-c4ccc(C#N)nc4)cc23)c1 | 428 nM | > 25000 nM
42% | 38% | – | – | CC(Nc1c(Cl)cnc2ccc(-c3cnc(C(C)(C)O)nc3)cc12)c1ccc(F)cc1 (racemic) | 62 nM | 840 nM
32% | 28% | – | – | CCOc1ncc(-c2ccc3ncc(Cl)c(N[C@H](C)c4ccccc4F)c3c2)cn1 | 15 nM | 587 nM
35% | 24% | 600 nM | 30 nM | Cc1ccc(C)c(Nc2c(Cl)cnc3ccc(-c4cnc(C(C)(C)O)nc4)cc23)c1 | – | 105 nM
69% | 13% | – | – | CC(C)C(Nc1c(Cl)cnc2ccc(-c3cnc(C(C)(C)O)nc3)cc12)c1ccccc1F (racemic) | 57 nM | 826 nM
40% | 7% | – | – | CC(Nc1c(Cl)cnc2c(Cl)cc(-c3cnc(C(C)(C)O)nc3)cc12)c1ccccc1F (racemic) | 106 nM | > 25000 nM
– | – | – | – | Cc1ccc(C)c(Nc2c(C)cnc3ccc(-c4cnc(C(C)(C)O)nc4)cc23)c1 | – | 107 nM
70% | 45% | – | – | C[C@@H](Nc1c(Cl)cnc2ccc(-c3cnc(C(C)(C)O)nc3)cc12)c1cc(N)ccc1F | 37 nM | 41 nM
– | – | – | – | CC(Nc1c(Cl)cnc2cnc(-c3cnc(C(C)(C)O)nc3)cc12)c1ccccc1F (racemic) | 400 nM | –
33% | 30% | – | – | Cc1ccc(C)c(Nc2c(Cl)cnc3ccc(-c4ccc(C#N)nc4)cc23)c1 | 35 nM | 73 nM
33% | 31% | – | – | C[C@@H](Nc1c(Cl)cnc2ccc(-c3ccc(S(C)(=O)=O)nc3)cc12)c1ccccc1F | 15 nM | 909 nM

remaining at 10 min [3] | remaining at 10 min [4] | IC50 (Cytochrome P450 2C9) | IC50 (Cytochrome P450 2C19) | Structure (SMILES) | IC50 (Tumor necrosis factor [1]) | IC50 (Tumor necrosis factor [2])
30% | 18% | – | – | C[C@@H](Nc1c(Cl)cnc2ccc(-c3cnc(C(C)(C)O)nc3)cc12)c1cc(N2CCCC2)ccc1F | 94 nM | 331 nM
81% | 49% | – | – | CC(Nc1c(Cl)cnc2ccc(-c3cnc(C(C)(C)O)nc3)cc12)c1ccccc1C(F)(F)F (racemic) | 51 nM | 407 nM
– | – | – | – | CC(Nc1c(Cl)cnc2cc(Cl)c(-c3cnc(C(C)(C)O)nc3)cc12)c1ccccc1F (racemic) | 54 nM | 178 nM
59% | 54% | – | – | C[C@@H](Nc1c(Cl)cnc2ccc(-c3cnc(C(C)(C)O)nc3)cc12)c1ccccc1F | 17 nM | 110 nM
79% | 23% | – | – | C[C@@H](Nc1c(Cl)cnc2ccc(-c3cnc(C(C)(C)O)nc3)cc12)c1cc(C#N)ccc1F | 48 nM | 49 nM
67% | 25% | – | – | CC(Nc1c(Cl)cnc2c(F)cc(-c3cnc(C(C)(C)O)nc3)cc12)c1ccccc1F (racemic) | 46 nM | 224 nM
46% | 51% | – | – | C[C@@H](Nc1ccnc2ccc(-c3cnc(C(C)(C)O)nc3)cc12)c1cc(N2CCCC2)ccc1F | 15100 nM | > 25000 nM
– | – | – | – | CC(Nc1c(Cl)cnc2ccc(-c3cnc(C(C)(C)O)nc3)c(Cl)c12)c1ccccc1F (racemic) | 116 nM | 365 nM
– | – | – | – | Cc1ccc(C)c(Nc2c(Cl)cnc3ccc(Br)cc23)c1 | 36 nM | 840 nM
32% | 26% | – | – | C[C@H](Nc1c(Cl)cnc2ccc(-c3cnc(C(C)(C)O)nc3)cc12)c1ccccc1 | 943 nM | > 25000 nM
47% | 32% | – | – | CC(Nc1c(Cl)cnc2ccc(-c3cnc(C(C)(C)O)nc3)cc12)c1cccc(F)c1 (racemic) | 31 nM | 1040 nM
84% | 41% | – | 30 nM | CC(Nc1c(Cl)cnc2ccc(-c3cnc(C(C)(C)O)nc3)nc12)c1ccccc1F (single isomer, unassigned; enantiomer 2) | 38 nM | 473 nM
57% | 34% | – | – | C[C@@H](Nc1c(Cl)cnc2ccc(-c3cnc(N4CCS(=O)(=O)CC4)nc3)cc12)c1ccccc1F | 25 nM | 152 nM
– | – | – | – | CC(Nc1c(Cl)cnc2ccc(-c3cnc(C(C)(C)O)nc3)nc12)c1ccccc1F (single isomer, unassigned; enantiomer 1) | 39 nM | 753 nM
57% | 61% | – | – | CC(C)(O)c1ncc(-c2ccc3ncc(Cl)c(NCc4ccccc4)c3c2)cn1 | 82 nM | > 25000 nM
70% | 28% | – | – | CC(Nc1c(Cl)cnc2cc(F)c(-c3cnc(C(C)(C)O)nc3)cc12)c1ccccc1F (racemic) | 48 nM | 64 nM
73% | 24% | – | – | C[C@@H](Nc1c(Cl)cnc2ccc(-c3ccc(C(C)(C)O)cc3)cc12)c1ccccc1F | 47 nM | 65 nM
86% | 57% | – | – | C[C@@H](Nc1c(Cl)cnc2ccc(-c3cnc(N4CCN(CC(=O)O)CC4)nc3)cc12)c1ccccc1F | – | 115 nM
